pIC50: −log10 of the molar value. Where a name gives a salt, the structure may show the parent alone. Read-outs that look alike come from different tables or passages of the source.

One experiment has as its target SUV39H2 (Homo sapiens (Human), UniProt Q9H5I1). In words: biochemical. Type of experiment: biochemical. As to conditions: 3H-SAM 100 nM, H3 Histone Peptide 350 nM, room temperature 3 hours. In a few lines:
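Scintillation proximity format: reactions were halted with streptavidin SPA beads (50 μg/well final) after 3 h at room temperature with enzyme dosed by lot-specific activity.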

Another experiment concerns A549. In words: Cell-based assay, anti-proliferative activity (Cell Counting Kit-8, 72 hours). Conditions: Homo sapiens, read-out: A549 IC50. An outline of the steps:
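After compound exposure of cells in 96-well plates, growth was measured colorimetrically and converted into IC50 values.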

Where [1] appears, read: A549 cells, 72 hours exposure, Cell Counting Kit-8.

SUV39H2, sequence (Q9H5I1 whole entry): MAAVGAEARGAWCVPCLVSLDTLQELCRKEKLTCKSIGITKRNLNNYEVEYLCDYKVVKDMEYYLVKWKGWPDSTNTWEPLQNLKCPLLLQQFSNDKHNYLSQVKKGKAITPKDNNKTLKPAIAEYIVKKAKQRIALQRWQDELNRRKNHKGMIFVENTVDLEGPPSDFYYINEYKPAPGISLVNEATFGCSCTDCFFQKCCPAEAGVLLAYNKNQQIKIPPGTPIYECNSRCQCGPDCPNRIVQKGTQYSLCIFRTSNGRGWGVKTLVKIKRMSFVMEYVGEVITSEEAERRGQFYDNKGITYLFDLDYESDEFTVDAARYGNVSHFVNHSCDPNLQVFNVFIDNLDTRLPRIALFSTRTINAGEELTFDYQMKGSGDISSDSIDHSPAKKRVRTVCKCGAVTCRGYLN

As usually defined, the pIC50 is the IC50 on a negative log10 scale, so that one unit is a factor of ten. `COc1cc(OC)c(-c2cn3ccc(N4CCN(/N=C\c5ccncc5)CC4)cc3n2)cc1Cl` [Example 410, (Z)-4-(2-(5-chloro-2,4-dimethoxyphenyl)imidazo[1,2-a]pyridin-7-yl)-N-(pyridin-4-ylmethylene)piperazin-1-amine]: the results for the pIC50 on SUV39H2 and in the experiment with A549 (setting [1]) were 8.08 and 6.11, respectively.

For `COc1cc(OC)c(-c2cn3ccc(N4CCCN(Cc5ccncc5)CC4)cc3n2)cc1Cl` [Example 388, 2-(5-chloro-2,4-dimethoxyphenyl)-7-(4-(pyridin-4-ylmethyl)-1,4-diazepan-1-yl)imidazo[1,2-a]pyridine dihydrochloride], the pIC50 on SUV39H2 is 8.30; in the experiment with A549 (A549, 72 h), 6.25.

For `COc1cc(OC)c(-c2cn3ccc(N[C@H]4CC[C@@H](NCc5ccc([N+](=O)[O-])cc5)CC4)cc3n2)cc1Cl` [Example 411, cis-N^1-(2-(5-chloro-2,4-dimethoxyphenyl)imidazo[1,2-a]pyridin-7-yl)-N^4-(4-nitrobenzyl)cyclohexane-1,4-diamine], the results for the negative logarithm of the IC50 (pIC50) against SUV39H2 and in the experiment with A549 (setting [1]) were 7.58 and 6.43, respectively.

With `COc1cc(OC)c(-c2cn3ccc(N4CCN(C(C)=O)C(C)C4)cc3n2)cc1Cl` (stereo not shown) [Example 309, 1-(4-(2-(5-chloro-2,4-dimethoxyphenyl)imidazo[1,2-a]pyridin-7-yl)-2-methylpiperazin-1-yl)ethanone], the results for the pIC50 against SUV39H2 and in the experiment with A549 (setting [1]) were 8.71 and 5.68, respectively.

As for `COc1cc(OC)c(-c2cn3ccc(N[C@H]4CC[C@H](NCc5cccc(C)c5)CC4)cc3n2)cc1Cl` [Example 415, (1r,4r)-N^1-(2-(5-chloro-2,4-dimethoxyphenyl)imidazo[1,2-a]pyridin-7-yl)-N^4-(3-methylbenzyl)cyclohexane-1,4-diamine], the pIC50 is 7.01 on SUV39H2 and 6.21 with A549 (setting [1]).

Regarding `COc1cc(OC)c(-c2cn3ccc(N[C@H]4CC[C@@H](NCc5ccc(N(C)C)cc5)CC4)cc3n2)cc1Cl` [Example 418, cis-N^1-(2-(5-chloro-2,4-dimethoxyphenyl)imidazo[1,2-a]pyridin-7-yl)-N^4-(4-(dimethylamino)benzyl)cyclohexane-1,4-diamine bis(2,2,2-trifluoroacetate)], the pIC50 is 7.38 on SUV39H2 and 6.21 in the experiment on A549 (setting [1]).

As to `COc1cc(OC)c(-c2cn3ccc(N4CCN(c5nccc(N6CCC(N)C6)n5)CC4)cc3n2)cc1Cl` (stereo not shown) [Example 405, 1-(2-(4-(2-(5-chloro-2,4-dimethoxyphenyl)imidazo[1,2-a]pyridin-7-yl)piperazin-1-yl)pyrimidin-4-yl)pyrrolidin-3-amine], the pIC50 is 7.82 on SUV39H2 and 6.16 with A549 (setting [1]).

As for `COc1cc(OC)c(-c2cn3ccc(N4CCN(c5ccnc(N6CCCC(O)C6)n5)CC4)cc3n2)cc1Cl` (stereo not shown) [Example 357, 1-(4-(4-(2-(5-chloro-2,4-dimethoxyphenyl)imidazo[1,2-a]pyridin-7-yl)piperazin-1-yl)pyrimidin-2-yl)piperidin-3-ol], the negative logarithm of the IC50 (pIC50) is 7.59 against SUV39H2 and 6.22 in the experiment with A549 (setting [1]).

As for `COc1cc(OC)c(-c2cn3ccc(N[C@H]4CC[C@H](Nc5nccc(N6CCN(C)CC6)n5)CC4)cc3n2)cc1Cl` [Example 398, (1r,4r)-N^1-(2-(5-chloro-2,4-dimethoxyphenyl)imidazo[1,2-a]pyridin-7-yl)-N^4-(4-(4-methylpiperazin-1-yl)pyrimidin-2-yl)cyclohexane-1,4-diamine], the pIC50 against SUV39H2 was 7.63; in the experiment with A549 (setting [1]), 6.36.

`COc1cc(OC)c(-c2cn3ccc(N4CCN(c5nccc(N6CCC(=O)CC6)n5)CC4)cc3n2)cc1Cl` [Example 366, 1-(2-(4-(2-(5-chloro-2,4-dimethoxyphenyl)imidazo[1,2-a]pyridin-7-yl)piperazin-1-yl)pyrimidin-4-yl)piperidin-4-one]: the pIC50 is 7.20 against SUV39H2 and 6.07 in the experiment on A549 (setting [1]).

As to `COc1cc(OC)c(-c2cn3ccc(N4CCC(CNC(=O)OC(C)(C)C)C4)cc3n2)cc1Cl` (stereo not shown) [Example 459, tert-butyl ((1-(2-(5-chloro-2,4-dimethoxyphenyl)imidazo[1,2-a]pyridin-7-yl)pyrrolidin-3-yl)methyl)carbamate], the negative-log IC50 (pIC50) at SUV39H2 was 8.11; with A549 (setting [1]), 6.00.

For `COc1cc(OC)c(-c2cn3ccc(N4CCN(c5ccnc(NC6CC6)n5)CC4)cc3n2)cc1Cl` [Example 331, 4-(4-(2-(5-chloro-2,4-dimethoxyphenyl)imidazo[1,2-a]pyridin-7-yl)piperazin-1-yl)-N-cyclopropylpyrimidin-2-amine], the pIC50 on SUV39H2 is 7.24; in the experiment on A549 (setting [1]) it was 6.09.

As to `COc1cc(OC)c(-c2cn3ccc(N4CCC(C(=O)NC5CCCCC5)CC4)cc3n2)cc1Cl` [Example 453, 1-(2-(5-chloro-2,4-dimethoxyphenyl)imidazo[1,2-a]pyridin-7-yl)-N-cyclohexylpiperidine-4-carboxamide], the figures for the pIC50 against SUV39H2 and in the experiment with A549 (setting [1]) were 7.98 and 6.27, respectively.

As for `COc1cc(OC)c(-c2cn3ccc(N4CCN(C(C)=O)CC4C)cc3n2)cc1Cl` (stereo not shown) [Example 308, 1-(4-(2-(5-chloro-2,4-dimethoxyphenyl)imidazo[1,2-a]pyridin-7-yl)-3-methylpiperazin-1-yl)ethanone], the figures for the pIC50 at SUV39H2 and with A549 (setting [1]) were 8.46 and 5.07, respectively.

For the compound `COc1cc(OC)c(-c2cn3ccc(N4CCN(c5cnc(N6CCN(S(=O)(=O)C7CC7)CC6)nc5)CC4)cc3n2)cc1Cl` [Example 369, 2-(5-chloro-2,4-dimethoxyphenyl)-7-(4-(2-(4-(cyclopropylsulfonyl)piperazin-1-yl)pyrimidin-5-yl)piperazin-1-yl)imidazo[1,2-a]pyridine 2,2,2-trifluoroacetate], the results for the pIC50 against SUV39H2 and in the experiment on A549 (setting [1]) were 7.24 and 6.20, respectively.

Turning to `COc1cc(OC)c(-c2cn3ccc(N4CCN(c5nccc(N6CCCC(O)C6)n5)CC4)cc3n2)cc1Cl` (stereo not shown) [Example 376, 1-(2-(4-(2-(5-chloro-2,4-dimethoxyphenyl)imidazo[1,2-a]pyridin-7-yl)piperazin-1-yl)pyrimidin-4-yl)piperidin-3-ol], the values for the pIC50 against SUV39H2 and in the experiment on A549 (setting [1]) were 7.18 and 6.01, respectively.

Regarding `COc1cc(OC)c(-c2cn3ccc(N4CCN(Cc5ccncc5F)CC4)cc3n2)cc1Cl` [Example 336, 2-(5-chloro-2,4-dimethoxyphenyl)-7-(4-((3-fluoropyridin-4-yl)methyl)piperazin-1-yl)imidazo[1,2-a]pyridine], the pIC50 was 7.79 against SUV39H2 and 6.01 with A549 (setting [1]).

As to `COc1cc(OC)c(-c2cn3ccc(N[C@H]4CC[C@H](NCc5ccc(N(C)C)cc5)CC4)cc3n2)cc1Cl` [Example 419, (1r,4r)-N^1-(2-(5-chloro-2,4-dimethoxyphenyl)imidazo[1,2-a]pyridin-7-yl)-N^4-(4-(dimethylamino)benzyl)cyclohexane-1,4-diamine], the pIC50 is 7.09 against SUV39H2 and 6.31 in the experiment with A549 (setting [1]).

In the case of `COc1cc(OC)c(-c2cn3ccc(N[C@H]4CC[C@@H](NCc5ccccc5)CC4)cc3n2)cc1Cl` [Example 325, cis-N^1-benzyl-N^4-(2-(5-chloro-2,4-dimethoxyphenyl)imidazo[1,2-a]pyridin-7-yl)cyclohexane-1,4-diamine], the pIC50 was 7.63 at SUV39H2 and 6.10 with A549 (setting [1]).

In the case of `COc1cc(OC)c(-c2cn3ccc(N4CCCN(C(C)=O)CC4)cc3n2)cc1Cl` [Example 429, 1-(4-(2-(5-chloro-2,4-dimethoxyphenyl)imidazo[1,2-a]pyridin-7-yl)-1,4-diazepan-1-yl)ethanone], the negative-log IC50 (pIC50) against SUV39H2 is 7.79; in the experiment on A549 (setting [1]), 5.00.

Take `COc1cc(OC)c(-c2cn3ccc(N4CCN(c5cccc(N6CCN(C)CC6)n5)CC4)cc3n2)cc1Cl` [Example 381, 2-(5-chloro-2,4-dimethoxyphenyl)-7-(4-(6-(4-methylpiperazin-1-yl)pyridin-2-yl)piperazin-1-yl)imidazo[1,2-a]pyridine]: the results for the pIC50 against SUV39H2 and in the experiment with A549 (setting [1]) were 7.37 and 6.11, respectively.

Take `COc1cc(OC)c(-c2cn3ccc(N4CCN(c5nccc(N(C)C)n5)CC4)cc3n2)cc1Cl` [Example 356, 2-(4-(2-(5-chloro-2,4-dimethoxyphenyl)imidazo[1,2-a]pyridin-7-yl)piperazin-1-yl)-N,N-dimethylpyrimidin-4-amine]: the pIC50 is 7.22 against SUV39H2 and 6.42 in the experiment on A549 (setting [1]).

With `COc1cc(OC)c(-c2cn3ccc(N[C@H]4C[C@H]5CC[C@@H](C4)N5C(=O)OC(C)C)cc3n2)cc1Cl` [Example 391, (1R,3r,5S)-isopropyl 3-((2-(5-chloro-2,4-dimethoxyphenyl)imidazo[1,2-a]pyridin-7-yl)amino)-8-azabicyclo[3.2.1]octane-8-carboxylate], the pIC50 was 7.10 against SUV39H2 and 6.00 in the experiment with A549 (setting [1]).

For `COc1cc(OC)c(-c2cn3ccc(NC4CCN(Cc5ccc([N+](=O)[O-])o5)CC4)cc3n2)cc1Cl` [Example 343, 2-(5-chloro-2,4-dimethoxyphenyl)-N-(1-((5-nitrofuran-2-yl)methyl)piperidin-4-yl)imidazo[1,2-a]pyridin-7-amine], the negative logarithm of the IC50 (pIC50) at SUV39H2 was 7.32; in the experiment on A549 (setting [1]) it was 6.04.

`COc1cc(OC)c(-c2cn3ccc(N4CCN(c5cc(N(C)C)nc(N)n5)CC4)cc3n2)cc1Cl` [Example 389, 6-(4-(2-(5-chloro-2,4-dimethoxyphenyl)imidazo[1,2-a]pyridin-7-yl)piperazin-1-yl)-N^4,N^4-dimethylpyrimidine-2,4-diamine dihydrochloride]: the negative-log IC50 (pIC50) against SUV39H2 is 7.41; with A549 (A549, 72 h), 6.12.

For the compound `COc1cc(OC)c(-c2cn3ccc(N[C@H]4CC[C@H](Nc5nccc(N6CCOCC6)n5)CC4)cc3n2)cc1Cl` [Example 406, (1r,4r)-N^1-(2-(5-chloro-2,4-dimethoxyphenyl)imidazo[1,2-a]pyridin-7-yl)-N^4-(4-morpholinopyrimidin-2-yl)cyclohexane-1,4-diamine], the negative-log IC50 (pIC50) against SUV39H2 was 7.43; in the experiment with A549 (setting [1]), 6.13.

Values taken from patent US10508109B2 (priority 2015, dated 2019).
